Results on two substances are retold here after article PMC8409970, “In vitro and in silico studies of bis (indol-3-yl) methane derivatives as potential α-glucosidase and α-amylase inhibitors” (Journal of Enzyme Inhibition and Medicinal Chemistry, 2021).

The target in one test is α-glucosidase (Saccharomyces cerevisiae, UniProt P53341). In words: α-Glucosidase inhibition assay (PNPG substrate). The format is biochemical. Particulars: pH 6.8, 37 °C. As for the experimental part:
The in vitro α-glucosidase inhibitory activities of all synthesised compounds were evaluated using p-nitrophenyl-α-D-glucopyranoside (PNPG) as substrate.
The α-glucosidase inhibitory activity of compounds 5a ∼ c, 6a ∼ c, and 7a ∼ c were performed according to our previous report.[30]^,[31] The 10 μL of α-glucosidase enzyme (final concentration 0.1 U/mL) and 10 μL of test compounds (dissolved in DMSO) were added into 130 μL of phosphate buffer (0.1 M, pH 6.8), followed 10 min incubation at 37 °C. Then 50 μL of PNPG (final concentration 0.25 mM) was added, and mixture was continuely incubated for 20 min at 37 °C. The absorbance at 405 nm was measured using Multimodel Reader. The percentage of enzyme inhibition was calculated: % Inhibition = [(A1– A0)/A0] × 100%, where A1 was the absorbance with the test compound, and A0 was the absorbance without the test compound. The IC50 value of compound was obtained from the plot of inhibition percentage vs test compound at different concentrations. […] The experiment was performed in duplicate.

For the next test, the target named is T1, α-amylase (Sus scrofa, UniProt P00690).
T1 sequence (P00690 16-511): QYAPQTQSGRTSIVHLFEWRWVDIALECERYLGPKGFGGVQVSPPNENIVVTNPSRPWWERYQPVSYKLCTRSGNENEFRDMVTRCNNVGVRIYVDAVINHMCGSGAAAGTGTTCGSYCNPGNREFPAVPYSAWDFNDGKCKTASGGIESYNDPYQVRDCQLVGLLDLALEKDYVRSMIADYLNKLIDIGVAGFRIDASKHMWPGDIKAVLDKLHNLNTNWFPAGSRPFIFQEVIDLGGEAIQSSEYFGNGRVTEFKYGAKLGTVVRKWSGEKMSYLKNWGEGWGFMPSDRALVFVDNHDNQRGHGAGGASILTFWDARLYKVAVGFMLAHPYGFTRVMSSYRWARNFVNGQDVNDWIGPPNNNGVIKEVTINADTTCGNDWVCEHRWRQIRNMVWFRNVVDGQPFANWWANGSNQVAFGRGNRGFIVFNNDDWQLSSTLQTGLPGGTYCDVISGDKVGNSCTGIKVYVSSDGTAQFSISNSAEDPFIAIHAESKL
In words: α-Amylase inhibition assay (starch/DNS). The format is biochemical. Conditions: starch substrate, pH 6.9, 37 °C. As for the experimental part: The α-amylase inhibitory activity of all tested compounds was performed according to previous report.[33]^,[34] A 10 μL of α-amylase enzyme solution (final concentration 0.25 U/mL), 10 μL of test compounds (dissolved in DMSO), and 80 μL of phosphate buffer (20 mM, pH 6.9) were mixed and incubated for 10 min at 37 °C. Next, 100 μL starch solution (final concentration 0.5%) was added into the mixture followed by an incubation of 10 min. After 100 μL DNS (containing 1 M Potassium sodium tartrate and 48 mM 3,5-Dinitrosalicylic acid) was added, the mixture was kept incubated in boiling water for 15 min. Finally, the absorbance was measured at 540 nm after dilution of solution by adding 900 μL distilled water. The percentage of enzyme inhibition was calculated: % Inhibition = [(A1– A0)/A0] × 100%, where A1 was the absorbance with the test compound, and A0 was the absorbance without the test compound. The IC50 value of compound was obtained from the plot of inhibition percentage vs test compound at different concentrations. […] The experiment was performed in duplicate.

Chain of α-glucosidase (P53341 whole entry): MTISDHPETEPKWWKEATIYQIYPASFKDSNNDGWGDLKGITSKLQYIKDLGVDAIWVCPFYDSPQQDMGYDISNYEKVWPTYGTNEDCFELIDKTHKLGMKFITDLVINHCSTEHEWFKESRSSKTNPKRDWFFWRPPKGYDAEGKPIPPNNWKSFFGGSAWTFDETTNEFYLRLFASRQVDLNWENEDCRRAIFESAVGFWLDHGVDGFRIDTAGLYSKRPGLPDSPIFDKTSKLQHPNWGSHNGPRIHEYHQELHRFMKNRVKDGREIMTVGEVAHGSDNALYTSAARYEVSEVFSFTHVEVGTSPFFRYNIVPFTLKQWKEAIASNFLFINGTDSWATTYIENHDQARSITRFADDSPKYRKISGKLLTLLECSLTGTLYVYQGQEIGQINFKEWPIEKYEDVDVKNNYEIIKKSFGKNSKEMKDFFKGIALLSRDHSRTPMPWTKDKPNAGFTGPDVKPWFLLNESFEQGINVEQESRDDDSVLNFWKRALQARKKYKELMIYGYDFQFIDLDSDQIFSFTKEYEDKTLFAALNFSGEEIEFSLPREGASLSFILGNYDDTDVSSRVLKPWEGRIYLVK

As to “2,2-Di(1H-pyrrol-3-yl)acetonitrile [Compound 6c]”, the figures for the IC50 against α-glucosidase and against α-amylase were 130 ± 3.81 µM and 419 ± 11.3 µM, respectively.
The like results for “2,2-Bis(1-methyl-1H-pyrrol-3-yl)acetonitrile [Compound 6a]” were, in that order, 220 ± 5.02 µM and 464 ± 9.47 µM.
